Tested on: T1, FhTPS7
T1 construct: gene TPS7; full-length ORF (570 residues, no transit peptide, TPS-a clade) in pET-32a, E. coli BL21 (DE3), Ni-purified
Test: GC-MS of hexane-extracted products, Michaelis-Menten non-linear fit
Format: biochemical, Freesia x hybrida
Details: 25 mM HEPES pH 7.4, 15 mM MgCl2, 5 mM DTT, 30 °C, 20 min
Text: GC-MS of hexane-extracted products, Michaelis-Menten non-linear fit on FhTPS7

| Km (FPP 1–135 μM) | Km (GPP 3–270 μM) | Compound |
| --- | --- | --- |
| 5.01 ± 0.21 µM |  | CC(C)=CCC/C(C)=C/CC/C(C)=C/COP(=O)(O)OP(=O)(O)O [FPP, farnesyl diphosphate] |
|  | 3.71 ± 0.19 µM | CC(C)=CCC/C(C)=C/COP(=O)(O)OP(=O)(O)O [GPP, geranyl diphosphate] |
